Consider 46 compounds from patent publication US20080207614A1, “QUINAZOLINE DERIVATIVES FOR THE TREATMENT AND PREVENTION OF DIABETES AND OBESITY” (SK CHEMICALS CO., LTD., priority 2004, published 2008).

The assay concerns C2C12 muscle cells. The assay is described as follows: Analysis of glucose absorption (2-deoxyglucose) in differentiated C2C12 muscle cells. It counts as cell-based. Particulars: test materials 10 μM, times relative to control group. How it is done:
C2C12 muscle cells were cultured in DMEM (Dulbecco's modified Eagle's medium) containing 10% bovine calf serum. When the cell density increased to about 85 to 90%, the culture medium was replaced with 1% bovine calf serum and cell differentiation was induced for 6 days. Completely differentiated cells were cultured for 3 hours with Krebs-Ringer buffer (KRB) containing 5 mM glucose. The test materials were added at a concentration of 10 μM. 30 minutes later, 0.2 μCi 2-deoxyglucose was added. KRB was removed 20 minutes later and the cells were washed for 3 times with cold PBS. The cells were lysed with 0.5N NaOH and counted using a radioactive counter.
In turn, `CCSc1nc(NCCc2ccccn2)c2ccccc2n1` [Compound 46, (2-Ethylsulfanylquinazolino-4-yl)-(2-pyridino-2-ylethyl)-amine] registered a Glucose absorption of 1.1. For `CC(C)(C)c1nc(NCc2cccc(F)c2)c2ccccc2n1` [Compound 195, (2-tert-Butylquinazolino-4-yl)-(3-fluorobenzyl)-amine] the value was 1.2; for `CC(C)Nc1nc(-c2ccccc2)nc2ccccc12` [Compound 60, Isopropyl-(2-phenylquinazolino-4-yl)-amine], 1.0; for `CCSc1nc(NC(CC)COC)c2ccccc2n1` (stereo not shown) [Compound 40, (2-Ethylsulfanylquinazolino-4-yl)-(1-methoxymethylpropyl)-amine], 1.2.

`COc1ccc(CNc2nc(Cc3ccccc3)nc3ccccc23)cc1OC` [Compound 331, (2-Benzylquinazolino-4-yl)-(3,4-dimethoxybenzyl)-amine] yielded a Glucose absorption of 1.2. For `Clc1ccc(-c2nc(NCCCCc3ccccc3)c3ccccc3n2)cc1` [Compound 264, [2-(4-Chlorophenyl)-quinazolino-4-yl]-(4-phenylbutyl)-amine] the value was 1.1.

Take `Cc1cc(C)c(Nc2nc(-c3ccccc3)nc3ccccc23)c(C)c1` [Compound 78, (2-Phenylquinazolino-4-yl)-(2,4,6-trimethyl-phenyl)-amine]: the Glucose absorption was 1.4.

Regarding `CCN1CCCC1CNc1nc(-c2ccccc2)nc2ccccc12` (stereo not shown) [Compound 117, (1-Ethyl-pyrrolidino-2-ylmethyl)-(2-phenylquinazolino-4-yl)-amine], the Glucose absorption is on record as 1.4. The compound `CCSc1nc(NCCOCCO)c2ccccc2n1` [Compound 50, 2-[2-(2-Ethylsulfanylquinazolino-4-ylamino)-ethoxy]-ethanol] registered a Glucose absorption of 1.2. To `CCCCCCCCCCCCCCCCNc1nc(-c2ccccc2)nc2ccccc12` [Compound 99, Hexadecyl-(2-phenylquinazolino-4-yl)-amine] belongs 1.4; to `c1ccc(Oc2ccc(Nc3nc(-c4ccccc4)nc4ccccc34)cc2)cc1` [Compound 82, (4-Phenoxy-phenyl)-(2-phenylquinazolino-4-yl)-amine], 1.2; to `c1ccc(-c2nc(NCCC(c3ccccc3)c3ccccc3)c3ccccc3n2)cc1` [Compound 136, (3,3-Diphenylpropyl)-(2-phenylquinazolino-4-yl)-amine], 1.3.

In the case of `c1ccc(Cc2nc(NCc3ccc4c(c3)OCO4)c3ccccc3n2)cc1` [Compound 218, Benzo[1,3]dioxol-5-ylmethyl-(2-benzylquinazolino-4-yl)-amine], the Glucose absorption is 2.0.

For the compound `COc1ccc(OC)c(CNc2nc(Cc3ccccc3)nc3ccccc23)c1` [Compound 334, (2-Benzylquinazolino-4-yl)-(2,5-dimethoxybenzyl)-amine], the Glucose absorption stood at 1.1. For `c1ccc2c(CNc3nc(C4CCCCC4)nc4ccccc34)cccc2c1` [Compound 205, (2-Cyclohexylquinazolino-4-yl)-naphthaleno-1-ylmethylamine] the value was 1.3; for `COc1ccc(CCNc2nc(-c3ccccc3)nc3ccccc23)cc1OC` [Compound 107, [2-(3,4-Dimethoxyphenyl)-ethyl]-(2-phenylquinazolino-4-yl)-amine], 0.4. To `Clc1ccc(CCNc2nc(-c3ccccc3)nc3ccccc23)c(Cl)c1` [Compound 127, [2-(2,4-Dichlorophenyl)-ethyl]-(2-phenylquinazolino-4-yl)-amine] belongs 1.4; to `CCc1ccc(Nc2nc(-c3ccccc3)nc3ccccc23)cc1` [Compound 75, (4-Ethyl-phenyl)-(2-phenylquinazolino-4-yl)-amine], 1.3; to `c1ccc2c(NCc3ccc4c(c3)OCO4)nc(-c3ccncc3)nc2c1` [Compound 254, Benzo[1,3]dioxol-5-ylmethyl-(2-pyridino-4-ylquinazolino-4-yl)-amine], 1.4.

`c1ccc(-c2nc(NCCN3CCCC3)c3ccccc3n2)cc1` [Compound 100, (2-Phenylquinazolino-4-yl)-(2-pyrrolidino-1-ylethyl)-amine]: the Glucose absorption worked out at 1.4. For `OCCOCCNc1nc(-c2ccc(Cl)cc2)nc2ccccc12` [Compound 269, 2-{2-[2-(4-Chlorophenyl)-quinazolino-4-ylamino]-ethoxy}-ethanol] the value was 1.2. To `c1coc(-c2nc(NCc3ccc4c(c3)OCO4)c3ccccc3n2)c1` [Compound 341, Benzo[1,3]dioxol-5-ylmethyl-(2-furano-2-ylquinazolino-4-yl)-amine] belongs 0.8. For `c1ccc(-c2nc(NC3CCCCC3)c3ccccc3n2)cc1` [Compound 51, Cyclohexyl-(2-phenylquinazolino-4-yl)-amine] the value was 1.0; for `OCCNc1nc(C2CCCCC2)nc2ccccc12` [Compound 210, 2-(2-Cyclohexylquinazolino-4-ylamino)-ethanol], 0.9. `CCSc1nc(NCCN2CCCC2)c2ccccc2n1` [Compound 45, (2-Ethylsulfanylquinazolino-4-yl)-(2-pyrrolidino-1-ylethyl)-amine] displayed a Glucose absorption of 1.1. With `c1ccc(CCCCNc2nc(C3CCCCC3)nc3ccccc23)cc1` [Compound 204, (2-Cyclohexylquinazolino-4-yl)-(4-phenylbutyl)-amine], the Glucose absorption is reported as 1.2.

`CC(C)(C)c1nc(NCc2cccc(C(F)(F)F)c2)c2ccccc2n1` [Compound 190, (2-tert-Butylquinazolino-4-yl)-(3-trifluoromethylbenzyl)-amine] came in with a Glucose absorption of 1.2.

For `Cc1ccccc1Nc1nc(-c2ccccc2)nc2ccccc12` [Compound 71, (2-Phenylquinazolino-4-yl)-o-tollylamine], the Glucose absorption is on record as 1.0. For `CCCCNc1nc(SCC)nc2ccccc12` [Compound 19, Butyl-(2-ethylsulfanylquinazolino-4-yl)-amine] the value was 1.4; for `c1ccc(Oc2cccc(Nc3nc(-c4ccccc4)nc4ccccc34)c2)cc1` [Compound 81, (3-Phenoxy-phenyl)-(2-phenylquinazolino-4-yl)-amine], 0.9. For `COc1ccc(Nc2nc(-c3ccccc3)nc3ccccc23)cc1` [Compound 70, (4-Methoxyphenyl)-(2-phenylquinazolino-4-yl)-amine] the value was 1.0; for `COc1ccc(CNc2nc(Cc3ccccc3)nc3ccccc23)c(OC)c1` [Compound 333, (2-Benzylquinazolino-4-yl)-(2,4-dimethoxybenzyl)-amine], 1.2; for `CCSc1nc(NCCO)c2ccccc2n1` [Compound 47, 2-(2-Ethylsulfanylquinazolino-4-ylamino)-ethanol], 0.9.

As for `c1ccc(CCCCNc2nc(Cc3ccccc3)nc3ccccc23)cc1` [Compound 216, (2-Benzylquinazolino-4-yl)-(4-phenylbutyl)-amine], the Glucose absorption is 2.6. To `c1ccc(CCNc2nc(-c3ccncc3)nc3ccccc23)cc1` [Compound 251, Phenethyl-(2-pyridino-4-ylquinazolino-4-yl)-amine] belongs 0.6; to `FC(F)(F)c1cccc(CNc2nc(C3CCCCC3)nc3ccccc23)c1` [Compound 202, (2-Cyclohexylquinazolino-4-yl)-(3-trifluoromethylbenzyl)-amine], 1.4. For `CCSc1nc(NCCOC)c2ccccc2n1` [Compound 34, (2-Ethylsulfanylquinazolino-4-yl)-(2-methoxy-ethyl)-amine] the value was 1.3; for `FC(F)(F)c1cccc(CNc2nc(-c3ccc(Cl)cc3)nc3ccccc23)c1` [Compound 262, [2-(4-Chlorophenyl)-quinazolino-4-yl]-(3-trifluoromethylbenzyl)-amine], 1.1; for `c1ccc(CN2CCC(Nc3nc(-c4ccccc4)nc4ccccc34)CC2)cc1` [Compound 105, (1-Benzyl-piperidino-4-yl)-(2-phenylquinazolino-4-yl)-amine], 1.2.

`OC(CNc1nc(-c2ccccc2)nc2ccccc12)c1ccccc1` (stereo not shown) [Compound 146, 1-Phenyl-2-(2-phenylquinazolino-4-ylamino)-ethanol] yielded a Glucose absorption of 2.3. To `COc1cc(OC)c(CNc2nc(-c3ccccc3)nc3ccccc23)c(OC)c1` [Compound 337, (2-Phenylquinazolino-4-yl)-(2,4,6-trimethoxybenzyl)-amine] belongs 1.3; to `CCSc1nc(NCC(C)C)c2ccccc2n1` [Compound 21, (2-Ethylsulfanylquinazolino-4-yl)-isobutylamine], 1.2. For `Fc1cccc(CNc2nc(Cc3ccccc3)nc3ccccc23)c1` [Compound 219, (2-Benzylquinazolino-4-yl)-(3-fluorobenzyl)-amine] the value was 2.3; for `O=[N+]([O-])c1ccc(CONc2nc(-c3ccccc3)nc3ccccc23)cc1` [Compound 161, O-(4-Nitrobenzyl)-N-(2-phenylquinazolino-4-yl)-hydroxylamine], 1.1; for `c1ccc2c(NCc3ccc4c(c3)OCO4)nc(C3CCCCC3)nc2c1` [Compound 206, Benzo[1,3]dioxol-5-ylmethyl-(2-cyclohexylquinazolino-4-yl)-amine], 1.4. Turning to `Fc1cccc(CNc2nc(-c3ccc(Cl)cc3)nc3ccccc23)c1` [Compound 267, [2-(4-Chlorophenyl)-quinazolino-4-yl]-(3-fluorobenzyl)-amine], the Glucose absorption was determined as 1.0.
